Reference: article PMC8267566, “Human GPR17 missense variants identified in metabolic disease patients have distinct downstream signaling profiles” (The Journal of Biological Chemistry, 2021)

Assays:
Assay in all cases: Tango β-arrestin recruitment assay
Type in all cases: cell-based
hGPR17L-A131T-Tango = target: T1, hGPR17L-A131T-Tango (Homo sapiens, UniProt Q13304, A131T)
T1 construct: Tango fusion module; host or cells: HTLA (HEK293T-derived)
Method: (§1) HTLA cells were seeded at 10,000 cells/well into white, opaque, poly-D-lysine-coated 96-well plates and transfected with hGPR17L-WT-Tango or hGPR17L-variant-Tango plasmids the following day using lipofectamine 3000 according to the manufacturer's protocol. The next day, cells were incubated at 37 °C and 5% CO2 in serum-free growth media for a 4 h serum starvation. MDL29,951 was then diluted in assay buffer (HBSS, 20 mM HEPES, pH 7.2), added to the cells, and incubated for 16 h at 37 °C and 5% CO2. Drug treatment was decanted and 80 μl/well of Promega Bright-Glo reagent (diluted 20× in assay buffer) (E2610; Promega Corporation) was added and incubated at room temperature for 15 min. Luminescence (1 s per well integration time) was read on a Molecular Devices SpectraMax iD5 plate reader.

hGPR17L-D105N-Tango = target: T2, hGPR17L-D105N-Tango (Homo sapiens, UniProt Q13304, D105N)
T2 construct: Tango fusion module; host or cells: HTLA (HEK293T-derived)
T2 sequence (Q13304 whole entry D105N, the tested form may be a part): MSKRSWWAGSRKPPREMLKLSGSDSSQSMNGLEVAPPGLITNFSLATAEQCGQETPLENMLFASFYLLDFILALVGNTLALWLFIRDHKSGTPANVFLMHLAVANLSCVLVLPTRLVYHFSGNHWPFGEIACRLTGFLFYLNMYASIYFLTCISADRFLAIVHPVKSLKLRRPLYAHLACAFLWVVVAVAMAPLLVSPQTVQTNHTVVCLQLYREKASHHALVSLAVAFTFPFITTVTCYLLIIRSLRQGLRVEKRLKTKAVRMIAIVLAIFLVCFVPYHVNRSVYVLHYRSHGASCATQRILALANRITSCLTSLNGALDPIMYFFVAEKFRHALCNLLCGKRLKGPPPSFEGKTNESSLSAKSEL
Method: as §1

hGPR17L-F43L-Tango = target: T3, hGPR17L-F43L-Tango (Homo sapiens, UniProt Q13304, F43L)
T3 construct: Tango fusion module; host or cells: HTLA (HEK293T-derived)
T3 sequence (Q13304 whole entry F43L, the tested form may be a part): as the sequence (Q13304 whole entry D105N, the tested form may be a part) above, with F43L, N105D counted along it
Method: as §1

hGPR17L-G136S-Tango = target: T4, hGPR17L-G136S-Tango (Homo sapiens, UniProt Q13304, G136S); settings: HTLA cells, 30 μM MDL29,951
T4 construct: Tango fusion module; host or cells: HTLA (HEK293T-derived)
T4 sequence (Q13304 whole entry G136S, the tested form may be a part): as the sequence (Q13304 whole entry D105N, the tested form may be a part) above, with N105D, G136S counted along it
Method: as §1

hGPR17L-G354V-Tango = target: T5, hGPR17L-G354V-Tango (Homo sapiens, UniProt Q13304, G354V)
T5 construct: Tango fusion module; host or cells: HTLA (HEK293T-derived)
T5 sequence (Q13304 whole entry G354V, the tested form may be a part): as the sequence (Q13304 whole entry D105N, the tested form may be a part) above, with N105D, G354V counted along it
Method: as §1

hGPR17L-R248Q-Tango = target: T6, hGPR17L-R248Q-Tango (Homo sapiens, UniProt Q13304, R248Q)
T6 construct: Tango fusion module; host or cells: HTLA (HEK293T-derived)
T6 sequence (Q13304 whole entry R248Q, the tested form may be a part): as the sequence (Q13304 whole entry D105N, the tested form may be a part) above, with N105D, R248Q counted along it
Method: as §1

hGPR17L-R301H-Tango = target: T7, hGPR17L-R301H-Tango (Homo sapiens, UniProt Q13304, R301H)
T7 construct: Tango fusion module; host or cells: HTLA (HEK293T-derived)
T7 sequence (Q13304 whole entry R301H, the tested form may be a part): as the sequence (Q13304 whole entry D105N, the tested form may be a part) above, with N105D, R301H counted along it
Method: as §1

hGPR17L-V103M-Tango = target: T8, hGPR17L-V103M-Tango (Homo sapiens, UniProt Q13304, V103M)
T8 construct: Tango fusion module; host or cells: HTLA (HEK293T-derived)
T8 sequence (Q13304 whole entry V103M, the tested form may be a part): as the sequence (Q13304 whole entry D105N, the tested form may be a part) above, with V103M, N105D counted along it
Method: as §1

hGPR17L-V96M-Tango = target: T9, hGPR17L-V96M-Tango (Homo sapiens, UniProt Q13304, V96M); settings: HTLA cells, MDL29,951 0.5 nM to 30 μM
T9 construct: Tango fusion module; host or cells: HTLA (HEK293T-derived)
T9 sequence (Q13304 whole entry V96M, the tested form may be a part): as the sequence (Q13304 whole entry D105N, the tested form may be a part) above, with V96M, N105D counted along it
Method: as §1

hGPR17L-WT-Tango = target: T10, hGPR17L-WT-Tango (Homo sapiens, UniProt Q13304)
T10 construct: Tango fusion module; host or cells: HTLA (HEK293T-derived)
T10 sequence (Q13304 whole entry, the tested form may be a part): as the sequence (Q13304 whole entry D105N, the tested form may be a part) above, with N105D counted along it
Method: as §1

[1] = read-out: β-arrestin recruitment EC50, HTLA cells

T1 sequence (Q13304 whole entry A131T, the tested form may be a part): as the sequence (Q13304 whole entry D105N, the tested form may be a part) above, with N105D, A131T counted along it

O=C(O)CCc1c(C(=O)O)[nH]c2cc(Cl)cc(Cl)c12 [MDL29,951]
β-arrestin recruitment Efficacy (% of WT span) (hGPR17L-A131T-Tango; HTLA cells): 97 ± 5.2 % of WT span | β-arrestin recruitment pEC50 ± SEM (hGPR17L-A131T-Tango; HTLA cells): 6.55 ± 0.06 | EC50 (hGPR17L-A131T-Tango; [1]): 0.28 µM | β-arrestin recruitment Efficacy (% of WT span) (hGPR17L-D105N-Tango; HTLA cells): 100 ± 5.0 % of WT span | β-arrestin recruitment pEC50 ± SEM (hGPR17L-D105N-Tango; HTLA cells): 6.53 ± 0.03 | EC50 (hGPR17L-D105N-Tango; [1]): 0.29 µM | β-arrestin recruitment Efficacy (% of WT span) (hGPR17L-F43L-Tango; HTLA cells): 61 ± 13 % of WT span | β-arrestin recruitment pEC50 ± SEM (hGPR17L-F43L-Tango; HTLA cells): 7.08 ± 0.03 | EC50 (hGPR17L-F43L-Tango; [1]): 0.083 µM | agonist-stimulated β-arrestin recruitment (hGPR17L-G136S-Tango): only a modest response | β-arrestin recruitment pEC50 ± SEM (hGPR17L-G354V-Tango; HTLA cells): 6.96 ± 0.04 | EC50 (hGPR17L-G354V-Tango; [1]): 0.11 µM | β-arrestin recruitment Efficacy (% of WT span) (hGPR17L-R248Q-Tango; HTLA cells): 73 ± 16 % of WT span | β-arrestin recruitment pEC50 ± SEM (hGPR17L-R248Q-Tango; HTLA cells): 7.55 ± 0.16 | EC50 (hGPR17L-R248Q-Tango; [1]): 0.028 µM | β-arrestin recruitment Efficacy (% of WT span) (hGPR17L-R301H-Tango; HTLA cells): 69 ± 9.0 % of WT span | β-arrestin recruitment pEC50 ± SEM (hGPR17L-R301H-Tango; HTLA cells): 6.55 ± 0.04 | EC50 (hGPR17L-R301H-Tango; [1]): 0.28 µM | β-arrestin recruitment Efficacy (% of WT span) (hGPR17L-V103M-Tango; HTLA cells): 84 ± 13 % of WT span | β-arrestin recruitment pEC50 ± SEM (hGPR17L-V103M-Tango; HTLA cells): 6.69 ± 0.05 | EC50 (hGPR17L-V103M-Tango; [1]): 0.21 µM | agonist-stimulated β-arrestin recruitment (hGPR17L-V96M-Tango): no apparent agonist-stimulated β-arrestin recruitment | maximum β-arrestin recruitment response (hGPR17L-WT-Tango; HTLA cells): 1.78 ± 0.09 fold over baseline | β-arrestin recruitment Efficacy (% of WT span) (hGPR17L-WT-Tango; HTLA cells): 100 % of WT span | β-arrestin recruitment pEC50 ± SEM (hGPR17L-WT-Tango; HTLA cells): 7.02 ± 0.02 | EC50 (hGPR17L-WT-Tango; [1]): 0.096 µM
